# Assay results taken from patent US20080090873A1, “Sulfonamide derivatives” (priority 2006, published 2008).
# How the values were obtained:
# [1] = molecular target: human adrenergic B2 receptor (Homo sapiens, UniProt P07550); test: Whole cell luciferase reporter assay of agonist potency in CHO cells expressing the hB2 receptor; type: cell-based; conditions: 4 h incubation, read-out: EC50 - beta2
# Experimental: Functional Assessment of Agonist Potency and Efficacy Using a Whole Cell Luciferase Reporter Assay in CHO Cells Expressing the hB2 Receptor.
# CHO (Chinese Hamster Ovary) cells recombinantly expressing the human adrenergic B2 receptor and transfected with a luciferase enzyme reporter gene were maintained in growth media composed of F12:DMEM (Sigma D6421) containing 10% Foetal Bovine Serum (FBS: Sigma F03921) 10 μg/ml puromycin (Sigma N277698), 0.5 mg/ml Geneticin G418 (Sigma G7034) and 2 mM L-glutamine (Sigma G7513). The cells were kept in sterile conditions at 37° C., in an atmosphere containing 5% CO2.
# hB2 Luciferase Assay Protocol
# Cells were harvested for assay when they reached 80-90% confluency using enzyme free cell Dissociation Solution (Life technologies 13151-014) incubated with the cells for 5 min at 37° C. in an atmosphere containing 5% CO2. Detached cells were collected in warmed growth media (composition described above), and re-suspended in assay media (F12:DMEM (Sigma D6421) containing 1% Foetal Bovine Serum (FBS: Sigma F03921), 10 μg/ml puromycin (Sigma N277698), 0.5 mg/ml Geneticin G418 (Sigma G7034) and 2 mM L-glutamine (Sigma G7513)) to give a viable cell concentration of 1×10^6 cells/ml. 10 ul of this suspension was added to each well of a tissue culture treated low volume 384 well plate (Greiner788073) and the plate incubated in an atmosphere containing 5% CO2 at 37° C. for 2 h. Concentration ranges of test compounds were prepared in phosphate Buffered Saline containing 0.05% pluronic-F127 (Sigma P2443) and 2.5% DMSO. […] At the end of the incubation period 4 μl of Steady-Glo reagent (Steady-Glo Luciferase assay system (Promega E2520) was added to each well and the plate read immediately in a Leadseeker Plate reader (Amersham Bioscience) using a 660 nm filter. Concentration effect curves were plotted and EC50 values generated using a 4-parameter sigmoid fit using an in-house data analysis programme. Isoprenaline was run in every assay as a reference standard.
# [2] = molecular target: human muscarinic M3 receptor (Homo sapiens, UniProt P20309); test: Whole cell β-lactamase reporter assay of antagonist activity in CHO cells expressing the hM3 receptor; type: cell-based; conditions: NFAT β-lactamase reporter, inhibition of 80 nM carbamyl choline signal, 4 h
# human muscarinic M3 receptor, sequence (P20309 whole entry): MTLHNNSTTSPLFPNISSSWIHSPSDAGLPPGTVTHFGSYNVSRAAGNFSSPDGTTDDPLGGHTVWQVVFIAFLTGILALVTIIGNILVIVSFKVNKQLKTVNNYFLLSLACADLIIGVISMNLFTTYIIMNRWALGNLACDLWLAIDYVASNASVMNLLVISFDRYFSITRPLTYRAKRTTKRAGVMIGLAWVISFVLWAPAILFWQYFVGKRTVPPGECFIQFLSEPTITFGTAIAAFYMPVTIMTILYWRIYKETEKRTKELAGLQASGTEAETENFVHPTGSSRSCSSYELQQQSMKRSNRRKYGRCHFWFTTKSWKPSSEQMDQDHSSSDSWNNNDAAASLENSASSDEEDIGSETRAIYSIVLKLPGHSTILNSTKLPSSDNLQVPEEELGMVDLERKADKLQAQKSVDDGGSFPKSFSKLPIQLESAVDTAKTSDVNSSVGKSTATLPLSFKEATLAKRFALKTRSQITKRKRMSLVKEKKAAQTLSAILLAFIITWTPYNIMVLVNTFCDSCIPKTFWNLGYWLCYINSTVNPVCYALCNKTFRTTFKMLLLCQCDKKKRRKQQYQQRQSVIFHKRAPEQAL
# Experimental: Functional Assessment of Antagonist Activity Using a Whole Cell β-Lactamase Reporter Assay in CHO Cells Expressing the hM3 Receptor.
# CHO (Chinese Hamster Ovary) cells recombinantly expressing the human muscarinic M3 receptor were transfected with the NFAT_β-Lac_Zeo plasmid. Cells were grown in DMEM with Glutamax-1, supplemented with 25 mM HEPES (Life Technologies 32430-027), containing 10% FCS (Foetal Calf Serum; Sigma F-7524), […] Sodium pyruvate (Sigma S-8636), NEAA (non-Essential Amino Acids; Invitrogen 11140-035) and 200 μg/ml Zeocin (Invitrogen R250-01).
# Cells were harvested for assay when they reached 80-90% confluency using enzyme free cell Dissociation Solution (Life technologies 13151-014) incubated with the cells for 5 min at 37° C. in an atmosphere containing 5% CO2. Detached cells were collected in warmed growth media and centrifuged at 2000 rpm for 10 min, washed in PBS (Phosphate Buffered Saline; Life Technologies 14190-094) and centrifuged again as just described. The cells were re-suspended at 2×10^5 cells/ml in growth medium (composition as described above). 20 μl of this cell suspension was added to each well of a 384 well black clear bottomed plate (Greiner Bio One 781091-PFI). The assay buffer used was PBS supplemented with 0.05% Pluronic F-127 (Sigma 9003-11-6) and 2.5% DMSO. Muscarinic M3 receptor signalling was stimulated using 80 nM carbamyl choline (Aldrich N240-9) incubated with the cells for 4 h at 37° C./5% CO2 and monitored at the end of the incubation period using a Tecan SpectraFluor+ plate reader (λ-excitation 405 nm, emission 450 nm and 503 nm). Compounds under test were added to the assay at the beginning of the 4 h incubation period and compound activity measured as the concentration dependent inhibition of the carbamyl choline induced signal. Inhibition curves were plotted and IC50 values generated using a 4-parameter sigmoid fit and converted to Ki values using the Cheng-Prusoff correction and the KD value for carbamyl choline in the assay.
# human adrenergic B2 receptor, sequence (P07550 whole entry): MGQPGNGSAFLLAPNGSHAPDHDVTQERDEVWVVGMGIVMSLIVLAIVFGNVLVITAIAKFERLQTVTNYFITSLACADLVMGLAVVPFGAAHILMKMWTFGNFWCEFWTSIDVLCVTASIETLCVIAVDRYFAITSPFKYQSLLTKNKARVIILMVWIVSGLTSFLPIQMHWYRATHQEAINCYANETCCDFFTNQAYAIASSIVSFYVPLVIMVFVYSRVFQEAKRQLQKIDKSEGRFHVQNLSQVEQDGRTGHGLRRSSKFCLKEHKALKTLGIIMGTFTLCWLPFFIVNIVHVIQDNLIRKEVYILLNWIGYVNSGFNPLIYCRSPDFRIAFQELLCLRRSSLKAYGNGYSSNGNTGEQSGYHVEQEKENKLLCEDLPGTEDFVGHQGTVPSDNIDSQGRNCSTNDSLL
EC50 [1] [nM],IC50 [2] [nM],Structure (SMILES)
1.01,2.93,"CS(=O)(=O)Nc1cc([C@@H](O)CNCCCCCCCCCN2CCC(OC(=O)Nc3ccccc3-c3ccc(O)c(F)c3)CC2)ccc1O [Example 1, 1-(9-{[(2R)-2-Hydroxy-2-{4-hydroxy-3-[(methylsulfonyl)amino]phenyl}ethyl]amino}nonyl)piperidin-4-yl(3′-fluoro-4′-hydroxybiphenyl-2-yl)carbamate]"
0.133,0.725,"CS(=O)(=O)Nc1cc([C@@H](O)CNCCCCCCCCCN2CCC(OC(=O)Nc3ccccc3-c3ccc(O)c(Cl)c3)CC2)ccc1O [Example 2, 1-(9-{[(2R)-2-Hydroxy-2-{4-hydroxy-3-[(methylsulfonyl)amino]phenyl}ethyl]amino}nonyl)piperidin-4-yl(3′-chloro-4′-hydroxybiphenyl-2-yl)carbamate]"
0.252,1.07,"CS(=O)(=O)Nc1cc([C@@H](O)CNCCCCCCCCCN2CCC(OC(=O)Nc3ccc(F)cc3-c3ccc(O)c(Cl)c3)CC2)ccc1O [Example 3, 1-(9-{[(2R)-2-hydroxy-2-{4-hydroxy-3-[(methylsulfonyl)amino]phenyl}ethyl]amino}nonyl)piperidin-4-yl(3′-chloro-5-fluoro-4′-hydroxybiphenyl-2-yl)carbamate]"
